“Also recorded” adds a separate entry of the source.
How the values were obtained:
[1] = system: tyrosine phosphorylation of insulin receptor β in CHO/hIR cells; assay: Tyrosine phosphorylation of insulin receptor in CHO/hIR cells (Western blot); assay type: cell-based, hamster CHO cells expressing human insulin receptor; settings: compound 5 µM to 20 µM for 3 h, insulin 10 nM 10 min, versus DMSO
Procedure: To explore the effect of PTP1B inhibitor in vitro on insulin signaling, CHO cells overexpressing human insulin receptor (CHO/hIR) were treated in presence or absence of compound, then tyrosine phosphorylation level of insulin receptor (p-IR) was detected after stimulated by insulin.
CHO/hIR cells were cultured in F12 nutrient medium including 10% (V/V) FBS, 100 units/mL penicillin and 100 μg/mL streptomycin with 5% CO2 at 37 °C. Cells were serum free starved for 2 h, and then treated with compounds for 3 h, followed with insulin (10 nM, Eli Lilly) for 10 min before harvested. Cells were rinsed twice with precooled 1× PBS and then lysed with 1× SDS loading buffer. Samples were heated at 100 °C for 15 min before electrophoresed with 8% SDS-polyarylamide gel under 80 to 120 volt voltage, and then transferred to nitrocellulose (NC) membranes. NC membranes were blocked for 2 h with 5% BSA (W/V) dissolved in TBST. The membranes incubated with primary antibodies overnight at 4 °C and secondary antibodies for 1 h at room temperature. The primary antibody p-Tyr (PY20) used was from Santa Cruz (Dallas, CA, USA) and β-actin from Sigma (St. Louis, MO, USA), secondary antibody was from Jackson Immuno Research (Philadelphia, PA, USA).

[2] = target: T1, PTP1B (Homo sapiens, UniProt P18031); assay: Enzyme kinetics: fast-binding and inhibition modality on PTP1B; assay type: biochemical
T1 sequence (P18031 1-435): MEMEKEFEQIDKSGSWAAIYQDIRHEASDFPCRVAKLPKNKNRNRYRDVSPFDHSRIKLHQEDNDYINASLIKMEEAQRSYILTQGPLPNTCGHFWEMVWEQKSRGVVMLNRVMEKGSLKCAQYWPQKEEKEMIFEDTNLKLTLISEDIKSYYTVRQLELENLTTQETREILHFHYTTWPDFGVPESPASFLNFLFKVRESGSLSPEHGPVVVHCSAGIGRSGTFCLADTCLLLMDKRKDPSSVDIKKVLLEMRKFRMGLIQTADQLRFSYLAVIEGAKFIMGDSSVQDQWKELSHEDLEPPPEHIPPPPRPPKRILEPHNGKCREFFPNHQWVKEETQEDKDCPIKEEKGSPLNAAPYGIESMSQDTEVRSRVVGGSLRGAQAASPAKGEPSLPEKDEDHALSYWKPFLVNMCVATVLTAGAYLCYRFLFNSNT
Procedure: A kinetic study was performed in order to identify the inhibitory mechanism of compound 46 (Figure 2), using the reported enzyme kinetics assays.
To characterize the inhibitor of PTP1B, the assay was carried out in a 100 μL system containing 50 mmol/L MOPS, pH 6.5, 14 nmol/L PTP1B, pNPP in 2-fold dilution from 80 mmol/L, and different concentrations of the inhibitor. […] (2) where Km is the Michaelis constant, v is the initial rate, Vmax is the maximum rate, and [S] is the substrate concentration. The Ki value was obtained by the linear replot of apparent Km/Vmax (slope) from the primary reciprocal plot versus the inhibitor concentration [I] according to the equation Km/Vmax = 1 + [I]/Ki.

[3] = target: T2, SHP-1 (Homo sapiens, UniProt P29350); assay: SHP-1 inhibition, OMFP substrate assay; assay type: biochemical
T2 construct: made in house
Procedure: In addition to potency improvements, we investigated the selectivity of three representative compounds, namely, 1, 46 and 49 against other PTPs (TCPTP, SHP-1, SHP-2, LAR). […] Besides TCPTP, we tested the inhibitory activity of these compounds on other three homogenous enzymes SHP-1, SHP-2, and LAR [25].
A colorimetric assay to measure inhibition against PTP1B and TCPTP was performed in 96-well plates. Briefly, the tested compounds were solubilized in DMSO and serially diluted into concentrations for the inhibitory test. The assays were carried out in a final volume of 100 μL containing 50 mmol/L MOPS, pH 6.5, 2 mmol/L pNPP, 30 nmol/L GST-PTP1B or GST-TCPTP,and 2% DMSO, and the catalysis of pNPP was continuously monitored on a SpectraMax 340 microplate reader at 405 nm for 3 min at 30 °C. The IC50 value was calculated from the nonlinear curve fitting of the percent inhibition [inhibition (%)] vs. the inhibitor concentration using the Equation (1): Inhibition (%) = 100/[1 + (IC50/[I]k)] (1) where k is the Hill coefficient. To study the inhibition on the other PTPase family members, SHP1, SHP2 and LAR were prepared and assays were performed according to procedures described previously. Briefly, the enzymatic activity of the SHP1, SHP2 and LARwere determined at 30 °C by monitoring the dephosphorylation of substrate 3-o-methylfluorescein phosphate (OMFP), product was then detected at a 485 nm excitation wavelength and 530 nm emission wavelength by the EnVision multilabe plate reader (Perkin-Elmer Life Sciences, Boston, MA, USA). The assays were carried out in a final volume of 50 μL containing 50 mmol/L MOPS, pH 6.8, 10 μmol/L OMFP, 20 nmol/L recombinant enzyme, 2 mmol/L dithiothreitol , 1 mmol/L EDTA, and 2% DMSO. The initial rate of the dephosphorylation was presented by the early linear region of the enzymatic reaction kinetic curve, the inhibitory activity of the compound was continuously monitored.

T2 sequence (P29350 whole entry): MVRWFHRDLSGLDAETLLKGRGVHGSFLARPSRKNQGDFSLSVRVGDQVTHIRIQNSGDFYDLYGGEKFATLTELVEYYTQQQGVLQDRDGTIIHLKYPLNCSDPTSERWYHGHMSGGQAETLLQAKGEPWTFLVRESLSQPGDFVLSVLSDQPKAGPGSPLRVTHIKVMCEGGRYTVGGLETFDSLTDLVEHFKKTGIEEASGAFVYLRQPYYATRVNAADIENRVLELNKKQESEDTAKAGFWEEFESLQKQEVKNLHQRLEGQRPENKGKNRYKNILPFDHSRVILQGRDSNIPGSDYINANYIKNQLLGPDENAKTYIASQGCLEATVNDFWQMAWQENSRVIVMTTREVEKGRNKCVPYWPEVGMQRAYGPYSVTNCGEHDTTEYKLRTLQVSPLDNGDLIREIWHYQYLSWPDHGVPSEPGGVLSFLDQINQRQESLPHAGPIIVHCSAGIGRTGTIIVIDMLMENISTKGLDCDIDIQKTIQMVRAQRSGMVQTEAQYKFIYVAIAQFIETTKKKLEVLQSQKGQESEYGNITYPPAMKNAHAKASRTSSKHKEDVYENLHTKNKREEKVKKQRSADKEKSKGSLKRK

binding behaviour of inhibition of PTP1B (time dependence) ([2]; preincubation of PTP1B with compound on ice for different times): fast-binding inhibition
IC50 ([3]; OMFP substrate, means ± SD of three replications, PC = Na3VO4): 6.01 ± 0.2 µM
selectivity for PTP1B over SHP-1 ([3]; from IC50 values): about 9 fold
Structure (SMILES): O=C(O)CNC(=O)c1ccc(C2Nc3cccc4cccc(c34)N2)nc1 [Compound 46]
tyrosine phosphorylation level of insulin receptor (p-IR) [1]: greatly improved p-IR level
inhibition modality toward PTP1B ([2]; Lineweaver-Burk plot, increased Km, unchanged Vmax, pNPP substrate): competitive inhibitor; also recorded: Typical competitive inhibition
